Assay results: US5519034A, “Tetraisoquinoline compounds which have useful pharmaceutical utility” (The Boots Company PLC, priority 1991, dated 1996)
Like-named read-outs stand apart in the source and are kept apart here.

Tests used:
[1] = molecular target: T1, D2 dopamine receptors (Rattus norvegicus, UniProt P61169); assay: D2 dopamine receptor binding: inhibition of tritiated (S)-sulpiride binding, rat striatal samples; parameters: species or system rat (male Charles River CD rats); conditions: for Ki: rat striatum, tritiated (S)-sulpiride; for Ki for D2 / Ki for D1: ratio to two significant figures
T1 construct: Striatal samples from the brains of male Charles River CD rats; from tissue; host or cells: striatum of male Charles River CD rats (washed membrane pellet)
Experimental: (§1) Striatal samples from the brains of male Charles River CD rats weighing between 140-250 g were homogenised in ice-cold 50 mM Tris-HCl buffer (pH 7.4 when measured at 25° C. for D1 binding assays and pH 7.7 when measured at 25° C. for D2 binding assays) and centrifuged for 10 minutes (at 21,000 g when used for D1binding assay and 40,000 g when used for D2binding assays). The pellet was resuspended in the same buffer, again centrifuged and the final pellet stored at -80° C. Before each test the pellet was resuspended in 50 mM Tris-HCl buffer containing 120 mM NaCl, 5 mM KCl, 2 mM CaCl2 and 1 mM MgCl2 at pH 7.4 for the D1 binding assays and at pH 7.7 with the addition of 6 mM ascorbic acid for the D2 binding assays. Aliquots of this suspension were then added to tubes containing the ligand and either the compound under test or buffer. For the D1 binding assays the ligand was tritiated SCH 23390 and the mixture was incubated at 37° C. for 30 minutes before the incubation was terminated by rapid filtration. For the D2 binding assays the ligand was tritiated (S)-sulpiride and the mixture was incubated at 4° C. for 40 minutes before the incubation was terminated by rapid filtration. Non-specific binding was determined experimentally by the addition of saturating concentrations of chloropromazine or spiroperidol for D1 and D2 receptors respectively.
(§2) The filters were washed with ice-cold Tris-HCl buffer and dried. The filters were punched out on to vials containing scintillation fluid and were left for about 20 hours before being counted by scintillation spectrophotometry. Displacement curves were produced over a range of concentrations of the compound under test and the concentration which gave a 50% inhibition of specific binding (IC50) obtained from the curve. The inhibition coefficient Ki was then calculated using the formula [formula] in which [ligand] is the concentration of the tritiated ligand used and KD is the equilibrium dissociation constant for the ligand.
(§3) In some cases Ki values for D2 binding were estimated from single concentration data by the application of the Langmuir adsorption isotherm equation. These cases are indicated by an "E" in the last two columns of Table I. In other cases it was not possible to determine or estimate the Ki and the Ki value is given as greater than (>) that which would result from the application of the above formula to the highest concentration which displaced ≤50% of the ligand.

[2] = molecular target: T2, D1 dopamine receptors (Rattus norvegicus, UniProt P18901); assay: D1 dopamine receptor binding: inhibition of tritiated SCH 23390 binding, rat striatal samples; parameters: species or system rat (male Charles River CD rats); conditions: rat striatum, tritiated SCH 23390, pH 7.4, 37° C., 30 minutes
T2 construct: Striatal samples from the brains of male Charles River CD rats; from tissue; host or cells: striatum of male Charles River CD rats (washed membrane pellet)
Experimental: as §1, §2, §3

[3] = pH 7.7, 4° C., 40 minutes, > = from highest concentration which displaced ≤50% of the ligand, read-out: Ki for D2 binding

T2 sequence (P18901 whole entry): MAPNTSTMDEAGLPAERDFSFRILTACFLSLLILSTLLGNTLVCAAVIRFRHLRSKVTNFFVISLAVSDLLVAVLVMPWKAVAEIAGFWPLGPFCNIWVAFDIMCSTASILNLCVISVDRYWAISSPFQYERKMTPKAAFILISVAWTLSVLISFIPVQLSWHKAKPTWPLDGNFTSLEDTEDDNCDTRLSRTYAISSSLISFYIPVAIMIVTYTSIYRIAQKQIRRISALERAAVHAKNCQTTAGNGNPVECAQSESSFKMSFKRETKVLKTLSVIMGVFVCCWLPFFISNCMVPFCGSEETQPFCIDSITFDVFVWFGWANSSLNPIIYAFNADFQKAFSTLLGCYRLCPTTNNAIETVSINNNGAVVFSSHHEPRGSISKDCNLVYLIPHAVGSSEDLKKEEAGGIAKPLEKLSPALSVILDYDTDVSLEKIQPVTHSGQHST
T1 sequence (P61169 whole entry): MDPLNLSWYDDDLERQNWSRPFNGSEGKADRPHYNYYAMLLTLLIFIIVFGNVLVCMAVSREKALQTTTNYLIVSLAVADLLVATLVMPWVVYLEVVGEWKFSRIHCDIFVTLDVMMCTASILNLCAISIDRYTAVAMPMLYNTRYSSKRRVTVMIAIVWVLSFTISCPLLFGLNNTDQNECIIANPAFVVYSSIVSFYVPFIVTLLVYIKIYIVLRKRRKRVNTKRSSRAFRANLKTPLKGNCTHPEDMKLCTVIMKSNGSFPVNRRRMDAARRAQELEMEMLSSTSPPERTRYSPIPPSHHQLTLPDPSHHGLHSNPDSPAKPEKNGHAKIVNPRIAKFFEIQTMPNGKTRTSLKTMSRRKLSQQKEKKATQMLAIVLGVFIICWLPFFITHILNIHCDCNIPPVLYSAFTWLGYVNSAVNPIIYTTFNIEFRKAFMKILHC

CN1CCc2cc(Cl)c(O)cc2C1C1(c2ccc(Cl)cc2)CCC1 (centres unmarked) [Example 53, 6-chloro-1-[1-(4-chlorophenyl)cyclobutyl]-7-hydroxy-2-methyl-1,2,3,4-tetrahydroisoquinoline]
Ki [1, 3]: 7.6 µM | Ki for D2 / Ki for D1 [1]: 320 | Ki [2]: 0.024 µM

CN1CCc2cc(Br)c(O)cc2C1C1(c2ccccc2)CCC1 (centres unmarked) [Example 20, 6-bromo-7-hydroxy-2-methyl-1-(1-phenylcyclobutyl)-1,2,3,4-tetrahydrosoqunoline]
Ki [1, 3]: > 5 µM | Ki for D2 / Ki for D1 [1]: > 160 | Ki [2]: 0.031 µM

CN1CCc2cc(Cl)c(O)c(Cl)c2C1C1(c2ccccc2)CCC1 (centres unmarked) [Example 58, 6,8-dichloro-7-hydroxy-2-methyl-1-(1-phenylcyclobutyl)-1,2,3,4-tetrahydroisoquinoline]
Ki [1, 3]: 360 µM | Ki for D2 / Ki for D1 [1]: 490 | Ki [2]: 0.74 µM

CN1CCc2cc(O)c(O)cc2C1C1(c2ccc(Cl)c(Cl)c2)CCC1 (centres unmarked) [Example 18, 1-[1-(3,4-dichlorophenyl)cyclobutyl]-6,7-dihydroxy-2-methyl-1,2,3,4-tetrahydroisoquinoline]
Ki [1, 3]: 4.4 µM | Ki for D2 / Ki for D1 [1]: 53 | Ki [2]: 0.083 µM

COc1cc2c(cc1O)C(C1(c3ccccc3)CCCC1)N(C)CC2 (centres unmarked) [Example 48]
Ki ([1]; estimated from single concentration data by Langmuir adsorption isotherm equation, read-out: Ki for D2 binding (marked E)): 3 µM | Ki [2]: 0.094 µM

COc1cc2c(cc1O)C(C1(c3ccccc3Cl)CCC1)N(C)CC2 (centres unmarked) [Example 35, 1-[1-(2-chlorophenyl)cyclobutyl]-7-hydroxy-6-methoxy-2-methyl-1,2,3,4-tetrahydroisoquinoline]
Ki [1, 3]: 240 µM | Ki for D2 / Ki for D1 [1]: 180000 | Ki [2]: 0.0013 µM

CN1CCc2cc(Cl)c(O)cc2C1C1(c2ccccc2)CCC1 (centres unmarked) [Example 52, 6-chloro-7-hydroxy-2-methyl-1-(1-phenylcyclobutyl)-1,2,3,4-tetrahydroisoquinoline]
Ki [1, 3]: 5.4 µM | Ki for D2 / Ki for D1 [1]: 320 | Ki [2]: 0.017 µM

CN1CCc2cc(Cl)c(O)cc2C1C1(c2ccccc2)CCC1 (single isomer, unassigned; (-)) [Example 59, (-)-6-chloro-7-hydroxy-2-methyl-1-(1-phenylcyclobutyl)-1,2,3,4-tetrahydroisoquinoline]
Ki [1, 3]: 3.2 µM | Ki for D2 / Ki for D1 [1]: 620 | Ki [2]: 0.0052 µM

CN1CCc2cc([N+](=O)[O-])c(O)cc2C1C1(c2ccccc2)CCC1 (centres unmarked) [Example 57, 7-hydroxy-2-methyl-6-nitro-1-(1-phenylcyclobutyl)-1,2,3,4-tetrahydroisoquinoline]
Ki [1, 3]: > 5 µM | Ki for D2 / Ki for D1 [1]: > 6.5 | Ki [2]: 0.77 µM

C=CCN1CCc2cc(Cl)c(O)cc2C1C1(c2ccccc2)CCC1 (centres unmarked) [Example 65, 2-allyl-6-chloro-7-hydroxy-1-(1-phenylcyclobutyl)-1,2,3,4-tetrahydroisoquinoline]
Ki [1, 3]: 51 µM | Ki for D2 / Ki for D1 [1]: 2300 | Ki [2]: 0.022 µM

CN1CCc2cc(Cl)c(O)cc2C1C1(c2ccccc2)CC(C)(C)C1 (centres unmarked) [Example 30, 6-chloro-7-hydroxy-2-methyl-1-(3,3-dimethyl-1-phenylcyclobutyl)-1,2,3,4-tetrahydroisoquinoline]
Ki [1, 3]: > 5 µM | Ki for D2 / Ki for D1 [1]: > 76 | Ki [2]: 0.066 µM

COc1cc2c(cc1O)C(C1(c3cc(OC)c(OC)cc3Br)CCC1)N(C)CC2 (centres unmarked) [Example 56, 1-[1-(2-bromo-4,5-dimethoxyphenyl)cyclobutyl]-7-hydroxy-6-methoxy-2-methyl-1,2,3,4-tetrahydroisoquinoline]
Ki [1, 3]: 52 µM | Ki for D2 / Ki for D1 [1]: 23000 | Ki [2]: 0.0023 µM

CN1CCc2cc(Cl)c(O)cc2C1C1(c2ccccc2Br)CCC1 (centres unmarked) [Example 40, 1-[1-(2-bromophenyl)cyclobutyl]-6-chloro-7-hydroxy-2-methyl-1,2,3,4-tetrahydroisoquinoline]
Ki [1, 3]: 18 µM | Ki for D2 / Ki for D1 [1]: 45000 | Ki [2]: 0.0004 µM

CN1CCc2c(Cl)ccc(O)c2C1C1(c2ccccc2)CCC1 (centres unmarked) [Example 44, 5-chloro-8-hydroxy-2-methyl-1-(1-phenylcyclobutyl)-1,2,3,4-tetrahydroisoquinoline]
Ki [1, 3]: 4.8 µM | Ki for D2 / Ki for D1 [1]: 37 | Ki [2]: 0.13 µM

CN1CCc2cc(O)c(O)cc2C1C1(c2ccc(Cl)cc2)CCCCC1 (centres unmarked) [Example 16, 1-[1-(4-chlorophenyl)cyclohexyl]-6,7-dihydroxy-2-methyl-1,2,3,4-tetrahydroisoquinoline]
Ki [1, 3]: 3.2 µM | Ki for D2 / Ki for D1 [1]: 18 | Ki [2]: 0.18 µM

CN1CCc2cc(O)c(O)cc2C1C1(c2ccc(F)cc2)CCC1 (centres unmarked) [Example 3, 1-[1-(4-fluorophenyl)cyclobutyl]-6,7-dihydroxy-2-methyl-1,2,3,4-tetrahydroisoquinoline]
Ki [1, 3]: 6100 µM | Ki for D2 / Ki for D1 [1]: 280000 | Ki [2]: 0.022 µM

CN1CCc2cc(O)c(O)cc2C1C1(c2ccccc2)CC1 (centres unmarked) [Example 27, 6,7-dihydroxy-2-methyl-1-(1-phenylcyclopropyl)-1,2,3,4-tetrahydroisoquinoline]
Ki [1, 3]: 5.7 µM | Ki for D2 / Ki for D1 [1]: 30 | Ki [2]: 0.19 µM

COc1ccc(C2(C3c4cc(O)c(O)cc4CCN3C)CCC2)cc1 (centres unmarked) [Example 54]
Ki [1, 3]: 3 µM | Ki for D2 / Ki for D1 [1]: 94 | Ki [2]: 0.032 µM

COc1cc2c(cc1O)C(C1(c3ccccc3Cl)CCCC1)N(C)CC2 (centres unmarked) [Example 84, 1-[1-(2-chlorophenyl)cyclopentyl]-7-hydroxy-6-methoxy-2-methyl-1,2,3,4-tetrahydroisoquinoline]
Ki [1, 3]: 5.1 µM | Ki for D2 / Ki for D1 [1]: 430 | Ki [2]: 0.012 µM

CN1CCc2ccc(O)cc2C1C1(c2ccccc2)CCC1 (centres unmarked) [Example 41, 7-hydroxy-2-methyl-1-(1-phenylcyclobutyl)-1,2,3,4-tetrahydroisoquinoline]
Ki [1, 3]: 13 µM | Ki for D2 / Ki for D1 [1]: 160 | Ki [2]: 0.079 µM

Cc1cc2c(cc1O)C(C1(c3ccccc3Cl)CC1)N(C)CC2 (centres unmarked) [Example 79, 1-[1-(2-chlorophenyl)cyclopropyl]-7-hydroxy-2,6-dimethyl-1,2,3,4-tetrahydroisoquinoline]
Ki [1, 3]: 0.94 µM | Ki for D2 / Ki for D1 [1]: 780 | Ki [2]: 0.0012 µM

CN1CCc2cc(O)c(O)cc2C1C1(c2ccccc2)CCC1 (centres unmarked) [Example 45, 6,7-dihydroxy-2-methyl-1-(1-phenylcyclobutyl)-1,2,3,4-tetrahydroisoquinoline]
Ki [1, 3]: > 0.5 µM | Ki for D2 / Ki for D1 [1]: > 21 | Ki [2]: 0.024 µM

CN1CCc2cc(O)c(O)cc2C1C1(c2ccc3ccccc3c2)CCC1 (centres unmarked) [Example 42, 6,7-dihydroxy-2-methyl-1-[1-(2-naphthyl)cyclobutyl]-1,2,3,4-tetrahydroisoquinoline]
Ki [1, 3]: 2.5 µM | Ki for D2 / Ki for D1 [1]: 15 | Ki [2]: 0.17 µM

CN1CCc2cc(F)c(O)cc2C1C1(c2ccccc2Cl)CCC1 (single isomer, unassigned; (+)) [Example 64, (+)-1-[1-(2-chlorophenyl)cyclobutyl]-6-fluoro-7-hydroxy-2-methyl-1,2,3,4-tetrahydroisoquinoline]
Ki [1, 3]: 4.8 µM | Ki for D2 / Ki for D1 [1]: 2000 | Ki [2]: 0.0024 µM

CN1CCc2cc(O)c(O)cc2C1C1(c2cccc(C(F)(F)F)c2)CCC1 (centres unmarked) [Example 8, 6,7-dihydroxy-2-methyl-1-[1-(3-trifluoromethylphenyl)cyclobutyl]-1,2,3,4-tetrahydroisoquinoline]
Ki [1, 3]: > 5 µM | Ki for D2 / Ki for D1 [1]: > 16 | Ki [2]: 0.31 µM

CN1CCc2cc(O)c(O)cc2C1C1(c2ccccc2Br)CCC1 (single isomer, unassigned; (+)) [Example 60, (+)-1-[1-(2-bromo-phenyl)cyclobutyl] -6,7-dihydroxy-2-methyl-1,2,3,4-tetrahydroisoquinoline]
Ki [1, 3]: 2 µM | Ki for D2 / Ki for D1 [1]: 710 | Ki [2]: 0.0028 µM

CN1CCc2cc(Cl)c(O)cc2C1C1(c2ccccc2)CCC1 (centres unmarked) [Example 28, 6-chloro-7-hydroxy-2-methyl-1-(1-phenylcyclobutyl)-1,2,3,4-tetrahydroisoquinoline]
Ki [1, 3]: 3.6 µM | Ki for D2 / Ki for D1 [1]: 330 | Ki [2]: 0.011 µM

CN1CCc2ccc(O)cc2C1C1(c2ccccc2Cl)CCC1 (centres unmarked) [Example 47, 1-[1-(2-chlorophenyl)cyclobutyl]-7-hydroxy-2-methyl-1,2,3,4-tetrahydroisoquinoline]
Ki [1, 3]: 19 µM | Ki for D2 / Ki for D1 [1]: 2100 | Ki [2]: 0.0091 µM
